Assay results as given in patent US8791140B2, “Crystalline forms of 6-[2-(methylcarbamoyl)phenylsulfanyl]-3-E-[2-(pyridin-2-yl)ethenyondazole suitable for the treatment of abnormal cell growth in mammals” (Pfizer Inc., priority 2007, dated 2014).

Settings: solid, 1X ICH Option 1 light exposure, Atlas Suntest XLS+ light box, 320 nm cutoff filter
Method: A photochemical comparative study of Form XLI, Form XXV, and Form IV was performed.
Approximately 50 mg of each form was placed in 20 ml glass vials. The sample depth was <3 mm. The vials were covered with a quartz glass dish and placed in an Atlas Suntest XLS+ light box equipped with a 320 nm cutoff filter. […] The samples were exposed to artificial light equivalent to the International Conference on Harmonization (ICH) Guidelines for Photostability Testing of New Drug Substances, Option 1 exposure.

SMILES	Potency (wt/wt %) after light exposure [%]
CNC(=O)c1ccccc1Sc1ccc2c(/C=C/c3ccccn3)n[nH]c2c1 [Form XLI, 6-[2-(methylcarbamoyl)phenylsulfanyl]-3-E-[2-(pyridin-2-yl)ethenyl]indazole]	89
CNC(=O)c1ccccc1Sc1ccc2c(/C=C/c3ccccn3)n[nH]c2c1 [Form XXV, 6-[2-(methylcarbamoyl)phenylsulfanyl]-3-E-[2-(pyridin-2-yl)ethenyl]indazole]	100
CNC(=O)c1ccccc1Sc1ccc2c(/C=C/c3ccccn3)n[nH]c2c1 [Form IV, 6-[2-(methylcarbamoyl)phenylsulfanyl]-3-E-[2-(pyridin-2-yl)ethenyl]indazole]	34
